Two compounds from ChEMBL document CHEMBL1146575, “Imidazole alkaloids from Lepidium meyenii” (2003) can be followed below.

Holding throughout (type): functional
Experiment [1] in a line: Cytotoxicity against human MDA231 cells. The conditions noted are these: MDA-MB-231, read-out: ED50 (the source's name).
Experiment [2] is described as follows: Cytotoxicity against human A4982LM cells. The conditions noted are these: read-out: ED50 (the source's name).
A further experiment relates to HT-29. Nature of the experiment: Cytotoxicity against human HT-29 cells. As to conditions: read-out: ED50 (the source's name).
In a further experiment the test system is MIA PaCa-2. The experiment can be described thus: Cytotoxicity against human MIAPaCa2 cells. As to conditions: read-out: ED50 (the source's name).
The nature of experiment [3]: Cytotoxicity against human FDIGROV cells. The conditions noted are these: read-out: ED50 (the source's name).
A further experiment has as its system PC-3. The experiment can be described thus: Cytotoxicity against human PC3 cells. The conditions noted are these: read-out: ED50 (the source's name).
The test system of a further experiment is A549. The experiment can be described thus: Cytotoxicity against human A549 cells. As to conditions: read-out: ED50 (the source's name).
The next experiment deals with UMUC3. The experiment can be described thus: Cytotoxicity against human UM-UC-3 cells. As to conditions: read-out: ED50 (the source's name).

On to `Cc1c(C)[n+](Cc2ccccc2)cn1Cc1ccccc1.[Cl-]` [LEPIDILINE A], for which the EC50 is above 10 µg/mL in experiment [1]; above 10 µg/mL in experiment [2]; above 10 µg/mL in the experiment on HT-29; above 10 µg/mL with MIA PaCa-2; 7.39 µg/mL in experiment [3]; above 10 µg/mL with PC-3. Moreover, the EC50 in the experiment on A549 and with UMUC3 was above 10 µg/mL throughout.
For `Cc1c(C)[n+](Cc2ccccc2)c(C)n1Cc1ccccc1.[Cl-]` [LEPIDILINE B], the EC50 was 1.66 µg/mL in experiment [1]; above 10 µg/mL in experiment [2]; above 10 µg/mL in the experiment with HT-29; 1.38 µg/mL with MIA PaCa-2; 5.26 µg/mL in experiment [3]; above 10 µg/mL with PC-3. Moreover, the EC50 with A549 was above 10 µg/mL; in the experiment on UMUC3 it was 6.47 µg/mL.
